Where “and” joins values, the source holds several entries; their conditions need not be identical. Identical values can stand only once.
System: 556581-035-R-J1-PDC complex spheroid growth
Assay: Anticancer human tumor 556581-035-R-J1-PDC patient-derived ovarian carcinoma cell line growth inhibition [AhR]
Conditions: for viability, T/C: stronger effect = lower value
From the text: Multicellular complex tumor spheroid response to aryl hydrocarbon receptor antagonists in combination with a variety of drugs and investigational agents in selected tumor cell lines
The current study was undertaken to assess response to aryl hydrocarbon receptor antagonists in combination with standard-of-care drugs and investigational agents in solid tumor complex spheroid models. Complex spheroids include a stromal component modeled by human endothelial cells (HUVEC) and fibroblasts modeled by human mesenchymal stem cells (MSCs). The concentration ranges selected for each drug and investigational agent were based upon clinically achievable concentrations if the clinical Cmax of the agent was known.
Compounds. The drugs and investigational agents: BAY 2416964 (NSC825713), GNF351 (NSC835774), CH-223191 (NSC835775), CPI-455 (NSC825282), aza-TdCyd (NSC777586), decitabine (NSC127716), belinostat (NSC758774), entinostat (NSC756642), pevonedistat (NSC761192), tazemetostat (NSC777109), talazoparib (NSC765396), olaparib (NSC753686), selinexor (NSC780203), nedisertib (M3814, NSC802822), bortezomib (NSC756655), venetoclax (NSC766270), doxorubicin (NSC123127), elimusertib (BAY189344, NSC800525), ceralasertib (AZD6738, NSC777638), TAK-243 (NSC785004), alisertib (NSC759677), etoposide (NSC141540), topotecan (NSC609699), eribulin (NSC707389), gemcitabine (NSC613327), carboplatin (NSC241240), cisplatin (NSC119875), and SN-38 (NSC673596) were obtained from the National Cancer Institute (NCI) Developmental Therapeutics Program Chemical Repository (32). The FDA-approved anticancer drug set is available from the Developmental Therapeutics Program at https://dtp.cancer.gov/organization/dscb/obtaining/available plates.htm. […] The stock solutions were prepared in dimethyl sulfoxide (DMSO, Sigma-Aldrich, St. Louis, MO, cat. D2650), except for the platinum compounds which were prepared in saline (Quality Biological, Gaithersburg, MD, cat. 114-055-101), at 800-fold the tested concentration and stored at -70 degrees C prior to their use. All drugs and investigational agents were tested over a range starting from a high concentration at or near the clinical Cmax and decreasing in half-log increments. If the clinical Cmax for an agent had not been determined, the highest concentration tested was 10 microM (Table 1).
Cell Culture. All cells were maintained in an incubator at 37 degrees C and 5% CO2 with 95% humidity. The PDC lines were cultured according to standard operating procedures established by the NCI PDMR (https://pdmr.cancer.gov). Briefly, all PDCs were thawed and cultured in Matrigel-coated flasks prepared with a working solution of 1X Ham's F-12 nutrient mix, without supplementation (Invitrogen, Waltham, MA, cat. 11765054), 100 U/mL penicillin-streptomycin (Invitrogen, cat. 15140122), and 2.5% Matrigel (Corning Inc., Corning, NY, cat. 354248) for the first three passages. All PDCs were cultured in complete DMEM/F-12 media containing advanced DMEM/F-12 (Invitrogen, cat. 12634028), 4.9% defined fetal bovine serum, heat inactivated (HyClone Laboratories Inc., Logan, UT, cat. SH30070.03HI), 389 ng/mL hydrocortisone (Sigma-Aldrich, cat. H4001), 9.7 ng/mL human EGF recombinant protein (Invitrogen, cat. PHG0313), 23.4 microg/mL adenine (Sigma-Aldrich, cat. A2786), 97.3 U/mL penicillin-streptomycin (Invitrogen, cat. 15140122), 1.9 mM L-glutamine (Invitrogen, cat. 25030081), and 9.7 microM Y-27632 dihydrochloride (Tocris Bioscience, Bristol, United Kingdom, cat. 1254). The PDCs were cultured in complete DMEM/F12 media without 10 microM Y-27632 dihydrochloride for at least two passages prior to the screen. The established cell lines NCI-H1341 and […] were cultured in DMEM/F-12, HEPES (Invitrogen, cat. 11330032), 5% defined fetal bovine serum (HyClone Laboratories Inc., cat. SH30070.03), ITS premix universal culture supplement [insulin (5 microg/mL), transferrin (5 microg/mL), and selenious acid (5 ng/mL)] […]

[1] = curve of first compound, second compound 0.1 µM
[2] = curve of first compound, second compound 0.316 µM
[3] = curve of first compound, second compound 1 µM
[4] = curve of first compound, second compound 3.16 µM
[5] = curve of first compound, second compound 10 µM
[6] = second compound 0.1 µM, first compound 0.0316 µM
[7] = second compound 0.1 µM, first compound 0.1 µM
[8] = second compound 0.1 µM, first compound 0.316 µM
[9] = second compound 0.1 µM, first compound 1 µM
[10] = second compound 0.1 µM, first compound 3.16 µM
[11] = second compound 0.1 µM, first compound 10 µM
[12] = second compound 0.316 µM, first compound 0.0316 µM
[13] = second compound 0.316 µM, first compound 0.1 µM
[14] = second compound 0.316 µM, first compound 0.316 µM
[15] = second compound 0.316 µM, first compound 1 µM
[16] = second compound 0.316 µM, first compound 3.16 µM
[17] = second compound 0.316 µM, first compound 10 µM
[18] = second compound 1 µM, first compound 0.0316 µM
[19] = second compound 1 µM, first compound 0.1 µM
[20] = second compound 1 µM, first compound 0.316 µM
[21] = second compound 1 µM, first compound 1 µM
[22] = second compound 1 µM, first compound 3.16 µM
[23] = second compound 1 µM, first compound 10 µM
[24] = second compound 3.16 µM, first compound 0.0316 µM
[25] = second compound 3.16 µM, first compound 0.1 µM
[26] = second compound 3.16 µM, first compound 0.316 µM
[27] = second compound 3.16 µM, first compound 1 µM
[28] = second compound 3.16 µM, first compound 3.16 µM
[29] = second compound 3.16 µM, first compound 10 µM
[30] = second compound 10 µM, first compound 0.0316 µM
[31] = second compound 10 µM, first compound 0.1 µM
[32] = second compound 10 µM, first compound 0.316 µM
[33] = second compound 10 µM, first compound 1 µM
[34] = second compound 10 µM, first compound 3.16 µM
[35] = second compound 10 µM, first compound 10 µM
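For viability, T/C in this document: compound exposure lasted 7 days; 100% = DMSO vehicle control growth.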

In the case of COc1cc(C2c3cc4c(cc3C(OC3OC5COC(C)OC5C(O)C3O)C3COC(=O)C23)OCO4)cc(OC)c1O (configuration not stated) + CC(CO)NC(=O)c1cc(-c2ccc(Cl)cc2)nn(-c2cnn(C)c2)c1=O, the IC50 [1] is reported as over 10 µM, the IC50 [2] is reported as 8.09 µM and the IC50 [3] is reported as over 10 µM. The IC50 [4] was 6.63 µM, the IC50 [5] was 7.38 µM and the viability, T/C [6] was 111%. It also gave a viability, T/C [7] of 117%, a viability, T/C [8] of 80% and a viability, T/C [9] of 62.9%. For the same molecule, the viability, T/C [10] was 66%, the viability, T/C [11] was 50.9% and the viability, T/C [12] was 95.4%. For the same molecule, the viability, T/C [13] was 102%, the viability, T/C [14] was 85.6% and the viability, T/C [15] was 67.8%. For the same molecule, the viability, T/C [16] was 72.8%, the viability, T/C [17] was 44.6% and the viability, T/C [18] was 109%. The viability, T/C [19] was 104%, the viability, T/C [20] was 81.9% and the viability, T/C [21] was 62.6%. The viability, T/C [22] was 60.5%, the viability, T/C [23] was 51.8% and the viability, T/C [24] was 103%. For the same molecule, the viability, T/C [25] was 102%, the viability, T/C [26] was 80% and the viability, T/C [27] was 74.5%. For the same molecule, the viability, T/C [28] was 59.9%, the viability, T/C [29] was 44.5% and the viability, T/C [30] was 105%. It also gave a viability, T/C [31] of 98.8%, a viability, T/C [32] of 81.7% and a viability, T/C [33] of 73.5%. The viability, T/C [34] was 59.7% and the viability, T/C [35] was 46.4%.

Nc1ccn(C2OC(CO)C(O)C2(F)F)c(=O)n1 (configuration not stated) was tested, and the viability, T/C (compound 0.0316 µM) was 32.3% and 35% and 33.6%, the viability, T/C (compound 0.1 µM) was 38.3% and 35.4% and 37.6% and the viability, T/C (compound 0.316 µM) was 32.6% and 36.3% and 46.9%. The viability, T/C (compound 1 µM) was 37.1% and 36.9% and 40.4%, the viability, T/C (compound 3.16 µM) was 39.2% and 35.1% and 36.5% and the viability, T/C (compound 10 µM) was 31.2% and 31.4% and 32.4%. It also gave an IC50 (curve of compound) of under 0.0316 µM.

CC1COCCN1c1cc(C2(S(C)(=N)=O)CC2)nc(-c2ccnc3[nH]ccc23)n1 (configuration not stated) + Cc1cncc(-c2nc(NCCc3c[nH]c4ccccc34)c3ncn(C(C)C)c3n2)c1 was tested, and the IC50 [1] was over 10 µM, the IC50 [2] was over 10 µM and the IC50 [3] was over 10 µM. For the same molecule, the IC50 [4] was over 10 µM, the IC50 [5] was over 10 µM and the viability, T/C [6] was 103%. It also gave a viability, T/C [7] of 104%, a viability, T/C [8] of 92.2% and a viability, T/C [9] of 93.3%. The viability, T/C [10] was 73.5%, the viability, T/C [11] was 67.4% and the viability, T/C [12] was 99%. The viability, T/C [13] was 97.9%, the viability, T/C [14] was 99.4% and the viability, T/C [15] was 95.4%. It also gave a viability, T/C [16] of 82.5%, a viability, T/C [17] of 68.9% and a viability, T/C [18] of 101%. The viability, T/C [19] was 106%, the viability, T/C [20] was 102% and the viability, T/C [21] was 94.7%. It also gave a viability, T/C [22] of 85%, a viability, T/C [23] of 67.3% and a viability, T/C [24] of 111%. The viability, T/C [25] was 103%, the viability, T/C [26] was 92.2% and the viability, T/C [27] was 99.2%. For the same molecule, the viability, T/C [28] was 74.2%, the viability, T/C [29] was 78.2% and the viability, T/C [30] was 80.4%. The viability, T/C [31] was 90.1%, the viability, T/C [32] was 80.7% and the viability, T/C [33] was 90.9%. The viability, T/C [34] was 79.5% and the viability, T/C [35] was 63.8%.
